Patent US6362164B1, “Combination of a somatostatin analogue and a rapamycin” (Novartis AG, priority 1996, dated 2002)

What was measured:
AR42J cells = experiment: In vitro AR42J cell growth assay (SRB staining, delta OD); format: cell-based, rat; set-up: Cell Growth (ΔOD): unit not given here; conditions: octreotide 1.2 nM, Compound B 12.0 nM, combination 1.2 + 12.0 nM; for Cell Growth (% of CONTROL) Observed: control = 100
[1] = tested on: AR42J (AR4-2J) rat pancreatic tumor cell line; experiment: In vivo AR42J tumor growth in nude mice; conditions: after 4 weeks; s.c. AR42J tumors in female nude mice; Compound B or rapamycin 5 mg/kg p.o., octreotide slow release 30 mg/kg s.c. single inj.; control 4020 (3 week value)
Method: Cultures are propagated in DMEM supplemented with 10% fetal calf serum (FCS) at 5% CO2. Cells are grown in the absence of antibiotics or antifungal agents. Female nude mice (nu/nu Balbc-A from Iffa Credo, Lyon, France) weighing 19-22 g, are kept in groups of 5 animals in macrolon cages (type III, 16×22×11 cm). The cages are placed in ventilated cabinets (Iffa Credo) that are maintained at 24±1° C. The animals have free access to drinking water and a pathogen-free rodent diet (Diet A, Kliba, Basel, Switzerland). To initiate tumors from cultured cells, AR42J cells are trypsinized and 10×10^6 tumor cells (in 0.2 ml) are injected subcutaneously (s.c.) into both flanks of nude mice. […] Control animals receive placebo. Animals are treated as indicated below for 3 weeks with single agents or the drug combination. The somatostatin analogue is given as a single injection of a slow release form at 30 mg/kg s.c. The size of the tumors is determined with a caliper. To calculate the tumor volume in ml, the equation “volume (ellipsoid)=length×depth×height×0.52” was used.
After 4 weeks, the following tumor sizes were determined.

Compound | Cell Growth (ΔOD) (AR42J cells; DMEM+2.5% FCS, control 664 ± 9) | Cell Growth (% of CONTROL) Observed (AR42J cells) [%] | Tumor Volume [1] [mm^3]
octreotide | 397 ± 16 | 59.8 | 
CO[C@H]1C[C@@H]2CC[C@@H](C)[C@@](O)(O2)C(=O)C(=O)N2CCCC[C@H]2C(=O)O[C@H]([C@H](C)C[C@@H]2CC[C@@H](OCCO)[C@H](OC)C2)CC(=O)[C@H](C)/C=C(\C)[C@@H](O)[C@@H](OC)C(=O)[C@H](C)C[C@H](C)/C=C/C=C/C=C/1C [Compound B, 40-O-(2-hydroxy)ethyl-rapamycin] |  | 63.3 | 3685
Rapamycin |  |  | 2748
